Measured values taken from US5387602A, “1.5-diphenyl-3-(N-hydroxycarbamoyloxyalkyl)pyrazoles” (Ortho Pharmaceutical Corporation, priority 1993, dated 1995).

Tests used:
[1] = molecular target: T1, Sheep Seminal Vesicle Cyclooxygenase (Ovis aries, UniProt P05979); experiment: Procedure I: sheep seminal vesicle (SSV) cyclooxygenase inhibition; format: biochemical; conditions: for IC50: SSV CO; for % INHIB. CO (Procedure I): dose 3 MPK unless otherwise stated (so in the source)
T1 construct: purchased Biomol (Plymouth Meeting, Pa.); host or cells: sheep seminal vesicle
T1 sequence (P05979 25-600): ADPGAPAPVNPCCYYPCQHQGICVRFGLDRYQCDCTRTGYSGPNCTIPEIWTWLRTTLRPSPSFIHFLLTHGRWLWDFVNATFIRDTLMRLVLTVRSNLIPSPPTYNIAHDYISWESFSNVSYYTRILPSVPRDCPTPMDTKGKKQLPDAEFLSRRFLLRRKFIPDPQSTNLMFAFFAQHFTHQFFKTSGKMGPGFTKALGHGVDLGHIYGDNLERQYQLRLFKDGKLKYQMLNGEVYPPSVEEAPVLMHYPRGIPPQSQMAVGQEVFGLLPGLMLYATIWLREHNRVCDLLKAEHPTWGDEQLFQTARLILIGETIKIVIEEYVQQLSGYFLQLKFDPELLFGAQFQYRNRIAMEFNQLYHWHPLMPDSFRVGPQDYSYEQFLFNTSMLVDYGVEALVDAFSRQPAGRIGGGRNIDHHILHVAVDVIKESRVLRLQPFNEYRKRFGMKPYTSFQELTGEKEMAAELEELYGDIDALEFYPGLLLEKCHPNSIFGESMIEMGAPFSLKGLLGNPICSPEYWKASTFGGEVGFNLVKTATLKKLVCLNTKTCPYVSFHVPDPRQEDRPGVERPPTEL
Method: Sheep Seminal Vesicle Cyclooxygenase Sheep seminal vesicle (SSV) cyclooxygenase (95% pure, prostaglandin endoperoxide synthase, EC 1.14.99.1 specific activity 24 units/mg protein) obtained as a lyophilized powder from Biomol (Plymouth Meeting, Pa.) was reconstituted at a concentration of 59 mg/mL in Hanks' Balanced Salt Solution (HBSS). The enzyme was divided into 200 μL aliquots, snap frozen with liquid N2, and stored at -70° C. until immediately prior to use. Measurements of CO activity were carried out in polypropylene tubes containing 495 μL of HBSS to which was added 5 μL Of inhibitor or dimethylsulfoxide (DMSO; vehicle control) and 6 μL of SSV CO solution. The tubes were mixed on a vortex shaker, preincubated for 5 min at 37° C. prior to the initiation of the reaction. The reaction was started by the addition of [^14 C]-arachidonic acid (1-^14 C-AA, Amersham, Arlington Heights, Ill.) in 10 μL of methanol. Tubes were again vortexed and incubated in a water bath for 20 minutes after which the tubes were removed and the reaction stopped by acidification with the addition of 1 mL 2M formic acid. Lipophilic products were extracted with 3 mL chloroform and concentrated to dryness under N2. Each pellet was reconstituted with 40 μL of chloroform and spotted on a Whatman Silicon thin-layer chromatography plate and developed in a chromatography tank containing A-9 solvent (11:5:2:1 V:V:V:V, ethyl acetate:trimethyl-pentane:acetic acid:double distilled-H2 O). Radioactive cyclooxygenase products (prostaglandin D2, prostaglandin E2, etc.) were measured using a Bioscan System 200 Imaging Scanner. Inhibition of enzyme activity was calculated by comparing the areas under the curve produced in the presence or absence of test compound. In the following tables, the superscripts indicate the number of experiments and, unless otherwise stated, the dose at which % inhibition is reported is 3 MPK.

[2] = molecular target: T2, RBL-1 Cell Cyclooxygenase (Rattus norvegicus, UniProt Q63921); experiment: Procedure II: cyclooxygenase inhibition in disrupted RBL-1 cells (supernatant as enzyme source); format: biochemical; conditions: for IC50: read-out: IC50 CO (Procedure II)
T2 construct: the supernatant was saved as the source of enzymes; endogenous in cells; host or cells: RBL-1 (rat basophilic leukemia cells), 10,000×g supernatant of homogenate
T2 sequence (Q63921 27-602): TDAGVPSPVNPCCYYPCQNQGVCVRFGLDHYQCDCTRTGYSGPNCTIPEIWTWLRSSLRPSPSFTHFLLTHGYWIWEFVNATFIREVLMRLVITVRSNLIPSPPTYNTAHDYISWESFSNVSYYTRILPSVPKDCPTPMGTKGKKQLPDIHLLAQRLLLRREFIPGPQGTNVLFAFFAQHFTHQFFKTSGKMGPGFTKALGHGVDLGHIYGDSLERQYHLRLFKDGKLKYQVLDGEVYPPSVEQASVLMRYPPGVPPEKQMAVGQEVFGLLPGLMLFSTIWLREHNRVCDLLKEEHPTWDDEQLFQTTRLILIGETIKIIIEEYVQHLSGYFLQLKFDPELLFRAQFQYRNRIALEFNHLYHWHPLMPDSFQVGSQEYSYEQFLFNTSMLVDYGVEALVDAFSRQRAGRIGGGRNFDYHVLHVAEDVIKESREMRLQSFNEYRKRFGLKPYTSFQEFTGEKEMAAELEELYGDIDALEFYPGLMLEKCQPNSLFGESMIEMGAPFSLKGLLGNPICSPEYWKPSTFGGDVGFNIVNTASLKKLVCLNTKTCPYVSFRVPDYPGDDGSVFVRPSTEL
Method: RBL-1 Cell 5-Lipoxygenase and Cyclooxygenase
Rat basophilic leukemia cells (RBL-1; 5×10^7 viable cells/mL) were disrupted by homogenization on ice (four 20 sec bursts) with a Brinkman polytron. Complete cell breakage was verified microscopically. The homogenate was then centrifuged at 10,000×g for 48 minutes at 4° C. The pellet was discarded and the supernatant was saved as the source of enzymes. The supernatant was pre-incubated for five minutes at 37° C. in the presence of 2 mM of CaCl2 and compound or vehicle (1% DMSO). The conversion of AA into 5-LO products was initiated by adding 10 μL (50 μCi) of 1-^14 C-AA to each tube and incubated at 37° C. for 20 minutes. The reaction was stopped by adjusting the pH of each sample to 3 to 3.5 with 2M formic acid. Samples were extracted with three volumes of chloroform to isolate the products of 5-LO formed during the reaction. Fractions were dried under nitrogen, then resuspended in 40 μL of chloroform and spotted onto silica gel HL plates. The plates were developed in A-9 solvent. The dried plates were analyzed using a Bioscan Imaging TLC scanner to determine the percentage of radiolabelled AA converted to 5-HETE in each sample.
In the following tables, the superscripts indicate the number of experiments and, unless otherwise stated, the dose at which % inhibition is reported is 3 MPK.

IC50 [1] [µM] | % INHIB. CO (Procedure I) [1] [%] | % INHIBITION CO (Procedure II) [2] [%] | IC50 [2] [µM] | Compound
2.55 | 68 | 100 | 2.25 | COc1ccc(-n2nc(CCCOC(=O)N(C)O)c(Cl)c2-c2ccc(Cl)cc2)cc1 [3-D]
5.8 | 26 | 52 | 17 | COc1ccc(-n2nc(CCCOC(=O)N(O)C(C)C)c(Cl)c2-c2ccc(Cl)cc2)cc1 [3-E]
2.29 | 78 | 100 | 6.11 | COc1ccc(-n2nc(CCCOC(=O)N(C)O)c(Br)c2-c2ccc(Cl)cc2)cc1 [3-F]

More lines, now with the values behind:

Compound | IC50 [1] [µM] | % INHIB. CO (Procedure I) [1] [%] | % INHIBITION CO (Procedure II) [2] [%] | IC50 [2] [µM]
COc1ccc(-n2nc(CCCOC(=O)NO)cc2-c2ccc(Cl)cc2)cc1 [3-A] | 4 | 40 | 67 | 3
COc1ccc(-n2nc(CCCOC(=O)N(C)O)cc2-c2ccc(Cl)cc2)cc1 [3-B] | – | 74 | 65 | 6.34
COc1ccc(-n2nc(CCCOC(=O)N(O)C(C)C)cc2-c2ccc(Cl)cc2)cc1 [3-C] | 1.4 | 53 | 72 | 1.78
COc1ccc(-n2nc(CCCOC(=O)N(O)C(C)C)c(Br)c2-c2ccc(Cl)cc2)cc1 [3-G] | 14.1 | 0 | 0 | 3.17
